# What was measured:
# [1] = target: T1, Type-1 angiotensin II receptor (Homo sapiens, UniProt P30556)
# T1 sequence (P30556 whole entry): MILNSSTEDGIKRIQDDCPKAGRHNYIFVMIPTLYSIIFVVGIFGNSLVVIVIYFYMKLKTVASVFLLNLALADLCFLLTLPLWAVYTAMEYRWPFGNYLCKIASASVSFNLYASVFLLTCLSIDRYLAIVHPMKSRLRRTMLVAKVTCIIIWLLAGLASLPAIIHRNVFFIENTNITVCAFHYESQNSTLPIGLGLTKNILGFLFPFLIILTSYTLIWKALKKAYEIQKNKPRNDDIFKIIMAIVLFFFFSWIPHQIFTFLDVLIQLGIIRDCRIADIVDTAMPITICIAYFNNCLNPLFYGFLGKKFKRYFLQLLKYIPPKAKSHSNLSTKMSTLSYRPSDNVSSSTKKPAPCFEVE
# [2] = target: Neuronal acetylcholine receptor subunit alpha-4 (Homo sapiens, UniProt P43681)
# [3] = target: T2, Gamma-aminobutyric acid receptor subunit alpha-1 (Rattus norvegicus, UniProt P62813); format: functional
# [4] = target: Glutamate receptor ionotropic, NMDA 1 (Rattus norvegicus, UniProt P35439)
# Histamine H1 receptor = Histamine H1 receptor (Homo sapiens, UniProt P35367)
# Histamine H2 receptor = Histamine H2 receptor (Homo sapiens, UniProt P25021); format: functional, cell-based
# [5] = target: T3, 5-hydroxytryptamine receptor 1A (Homo sapiens, UniProt P08908); format: functional, cell-based
# T3 sequence (P08908 whole entry): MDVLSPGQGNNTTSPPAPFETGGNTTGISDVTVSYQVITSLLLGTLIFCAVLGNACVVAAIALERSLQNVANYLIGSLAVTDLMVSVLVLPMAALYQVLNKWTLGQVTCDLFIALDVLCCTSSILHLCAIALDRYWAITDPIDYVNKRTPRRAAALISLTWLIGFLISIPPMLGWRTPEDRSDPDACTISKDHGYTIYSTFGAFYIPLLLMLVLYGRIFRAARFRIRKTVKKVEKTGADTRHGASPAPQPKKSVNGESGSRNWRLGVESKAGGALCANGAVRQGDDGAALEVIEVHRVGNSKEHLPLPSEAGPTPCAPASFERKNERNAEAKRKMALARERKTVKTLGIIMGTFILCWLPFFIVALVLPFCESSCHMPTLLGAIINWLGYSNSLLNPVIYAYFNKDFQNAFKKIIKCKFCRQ
# [6] = target: T4, 5-hydroxytryptamine receptor 3A (Homo sapiens, UniProt P46098); format: functional
# T4 sequence (P46098 whole entry): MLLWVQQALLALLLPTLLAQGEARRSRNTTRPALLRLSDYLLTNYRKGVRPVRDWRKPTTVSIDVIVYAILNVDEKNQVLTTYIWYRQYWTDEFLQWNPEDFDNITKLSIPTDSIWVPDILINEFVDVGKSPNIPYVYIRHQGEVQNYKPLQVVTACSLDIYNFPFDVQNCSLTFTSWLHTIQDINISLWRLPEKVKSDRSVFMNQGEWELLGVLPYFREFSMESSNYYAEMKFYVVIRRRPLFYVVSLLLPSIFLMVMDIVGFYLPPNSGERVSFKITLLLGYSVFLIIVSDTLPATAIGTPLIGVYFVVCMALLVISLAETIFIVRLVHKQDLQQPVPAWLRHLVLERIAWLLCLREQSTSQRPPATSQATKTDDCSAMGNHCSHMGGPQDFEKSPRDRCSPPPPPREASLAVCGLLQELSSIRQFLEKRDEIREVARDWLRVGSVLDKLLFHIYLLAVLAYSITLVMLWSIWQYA
# Motilin receptor = Motilin receptor (Homo sapiens, UniProt O43193)
# [7] = target: T5, Neuropeptide Y receptor type 1 (Homo sapiens, UniProt P25929)
# T5 sequence (P25929 whole entry): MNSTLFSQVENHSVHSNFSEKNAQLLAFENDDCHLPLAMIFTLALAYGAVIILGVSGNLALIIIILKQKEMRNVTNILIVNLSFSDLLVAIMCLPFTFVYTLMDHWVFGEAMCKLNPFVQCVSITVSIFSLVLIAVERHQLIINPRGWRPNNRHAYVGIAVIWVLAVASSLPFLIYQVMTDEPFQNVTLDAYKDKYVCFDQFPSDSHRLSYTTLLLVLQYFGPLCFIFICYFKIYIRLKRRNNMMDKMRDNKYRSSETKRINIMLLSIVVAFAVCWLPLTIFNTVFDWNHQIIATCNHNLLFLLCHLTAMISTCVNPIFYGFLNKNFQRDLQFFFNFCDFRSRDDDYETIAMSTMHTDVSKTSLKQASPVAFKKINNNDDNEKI
# [8] = target: T6, Equilibrative nucleoside transporter 1 (Homo sapiens, UniProt Q99808)
# T6 sequence (Q99808 whole entry): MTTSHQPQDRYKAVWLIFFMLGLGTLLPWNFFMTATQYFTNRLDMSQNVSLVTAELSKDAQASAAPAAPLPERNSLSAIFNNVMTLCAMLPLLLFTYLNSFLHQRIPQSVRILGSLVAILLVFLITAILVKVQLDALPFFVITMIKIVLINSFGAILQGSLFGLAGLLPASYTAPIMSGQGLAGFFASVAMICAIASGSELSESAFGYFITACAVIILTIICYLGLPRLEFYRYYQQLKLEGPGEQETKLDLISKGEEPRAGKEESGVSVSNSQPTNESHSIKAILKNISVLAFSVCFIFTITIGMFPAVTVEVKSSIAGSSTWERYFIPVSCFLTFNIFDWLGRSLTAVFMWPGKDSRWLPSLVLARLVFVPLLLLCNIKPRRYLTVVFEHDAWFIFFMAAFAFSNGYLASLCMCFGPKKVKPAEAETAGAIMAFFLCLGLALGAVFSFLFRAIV
# [9] = target: Sodium-dependent noradrenaline transporter (Homo sapiens, UniProt P23975)
# [10] = target: Sodium-dependent serotonin transporter (Homo sapiens, UniProt P31645)
# D(3) dopamine receptor = D(3) dopamine receptor (Homo sapiens, UniProt P35462)
# Histamine H3 receptor = Histamine H3 receptor (Homo sapiens, UniProt Q9Y5N1)
# [11] = target: T2, Gamma-aminobutyric acid receptor subunit alpha-1
# Further: assay procedure not described here.
# Sequence of Sodium-dependent serotonin transporter (P31645 whole entry): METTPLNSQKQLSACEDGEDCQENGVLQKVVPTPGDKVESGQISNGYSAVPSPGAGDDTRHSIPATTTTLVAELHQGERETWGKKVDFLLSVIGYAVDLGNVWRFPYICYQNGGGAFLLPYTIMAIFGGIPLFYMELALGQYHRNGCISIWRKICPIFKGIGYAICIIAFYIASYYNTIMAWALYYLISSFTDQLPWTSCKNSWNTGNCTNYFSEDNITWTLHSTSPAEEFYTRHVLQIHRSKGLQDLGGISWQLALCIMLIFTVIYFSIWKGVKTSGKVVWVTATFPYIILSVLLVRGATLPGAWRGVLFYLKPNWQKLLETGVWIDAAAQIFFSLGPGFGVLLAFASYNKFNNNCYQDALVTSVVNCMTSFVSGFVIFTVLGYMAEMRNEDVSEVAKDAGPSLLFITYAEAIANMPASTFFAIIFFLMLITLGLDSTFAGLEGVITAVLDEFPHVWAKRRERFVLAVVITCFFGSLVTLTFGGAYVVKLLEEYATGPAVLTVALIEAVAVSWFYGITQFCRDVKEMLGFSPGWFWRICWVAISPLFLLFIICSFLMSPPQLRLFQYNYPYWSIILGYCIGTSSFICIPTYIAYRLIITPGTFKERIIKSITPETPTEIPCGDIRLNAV
# Sequence of Histamine H1 receptor (P35367 whole entry): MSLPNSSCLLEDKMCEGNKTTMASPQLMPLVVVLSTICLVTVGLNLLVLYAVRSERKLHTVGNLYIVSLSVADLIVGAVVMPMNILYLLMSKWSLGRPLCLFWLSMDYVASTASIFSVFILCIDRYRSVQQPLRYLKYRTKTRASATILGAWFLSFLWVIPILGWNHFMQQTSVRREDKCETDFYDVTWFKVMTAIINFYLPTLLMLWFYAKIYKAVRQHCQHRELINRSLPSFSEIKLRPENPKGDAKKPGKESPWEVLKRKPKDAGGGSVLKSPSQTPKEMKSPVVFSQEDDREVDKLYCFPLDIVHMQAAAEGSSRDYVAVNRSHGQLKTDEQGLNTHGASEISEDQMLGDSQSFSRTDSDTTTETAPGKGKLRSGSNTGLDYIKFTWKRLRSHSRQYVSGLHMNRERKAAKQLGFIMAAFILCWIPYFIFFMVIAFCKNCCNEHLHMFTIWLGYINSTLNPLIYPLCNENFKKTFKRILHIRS
# Sequence of Sodium-dependent noradrenaline transporter (P23975 whole entry): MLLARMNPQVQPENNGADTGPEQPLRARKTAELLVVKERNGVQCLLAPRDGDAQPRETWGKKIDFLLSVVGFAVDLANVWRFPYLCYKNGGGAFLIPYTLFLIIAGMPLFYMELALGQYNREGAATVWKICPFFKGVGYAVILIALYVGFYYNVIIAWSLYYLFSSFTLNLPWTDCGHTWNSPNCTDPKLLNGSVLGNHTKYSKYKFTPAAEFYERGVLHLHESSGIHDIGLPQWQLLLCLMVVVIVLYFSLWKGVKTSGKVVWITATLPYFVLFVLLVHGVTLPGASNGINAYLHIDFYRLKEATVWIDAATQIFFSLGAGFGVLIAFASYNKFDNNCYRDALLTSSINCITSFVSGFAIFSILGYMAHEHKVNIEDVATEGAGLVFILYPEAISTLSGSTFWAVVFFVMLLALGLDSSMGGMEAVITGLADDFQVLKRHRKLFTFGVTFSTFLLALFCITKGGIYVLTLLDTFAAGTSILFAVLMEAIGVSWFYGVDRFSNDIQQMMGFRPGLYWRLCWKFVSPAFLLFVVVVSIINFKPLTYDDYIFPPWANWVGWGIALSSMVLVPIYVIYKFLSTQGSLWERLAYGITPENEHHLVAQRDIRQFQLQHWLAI
# Sequence of D(3) dopamine receptor (P35462 whole entry): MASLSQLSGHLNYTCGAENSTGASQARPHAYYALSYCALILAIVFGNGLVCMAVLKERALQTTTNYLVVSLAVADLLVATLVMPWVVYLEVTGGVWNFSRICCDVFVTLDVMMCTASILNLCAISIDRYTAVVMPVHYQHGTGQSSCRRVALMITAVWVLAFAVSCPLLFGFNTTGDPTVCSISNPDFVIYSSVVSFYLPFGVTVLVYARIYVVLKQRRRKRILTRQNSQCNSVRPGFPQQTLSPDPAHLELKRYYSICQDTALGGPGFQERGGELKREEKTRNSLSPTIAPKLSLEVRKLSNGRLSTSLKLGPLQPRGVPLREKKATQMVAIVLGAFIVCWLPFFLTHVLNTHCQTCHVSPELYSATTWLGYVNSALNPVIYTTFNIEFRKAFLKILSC
# Sequence of Histamine H3 receptor (Q9Y5N1 whole entry): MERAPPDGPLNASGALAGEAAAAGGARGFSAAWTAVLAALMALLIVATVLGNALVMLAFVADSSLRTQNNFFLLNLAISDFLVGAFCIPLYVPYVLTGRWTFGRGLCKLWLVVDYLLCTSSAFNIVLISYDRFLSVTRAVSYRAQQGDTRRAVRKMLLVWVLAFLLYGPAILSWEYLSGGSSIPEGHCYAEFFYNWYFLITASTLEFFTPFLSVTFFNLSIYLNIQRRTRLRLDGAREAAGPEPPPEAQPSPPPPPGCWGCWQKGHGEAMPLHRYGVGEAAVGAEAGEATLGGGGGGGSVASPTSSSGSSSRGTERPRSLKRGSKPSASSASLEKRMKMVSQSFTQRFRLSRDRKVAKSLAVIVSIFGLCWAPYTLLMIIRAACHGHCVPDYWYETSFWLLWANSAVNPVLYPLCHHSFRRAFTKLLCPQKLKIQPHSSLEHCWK
# Sequence of Histamine H2 receptor (P25021 whole entry): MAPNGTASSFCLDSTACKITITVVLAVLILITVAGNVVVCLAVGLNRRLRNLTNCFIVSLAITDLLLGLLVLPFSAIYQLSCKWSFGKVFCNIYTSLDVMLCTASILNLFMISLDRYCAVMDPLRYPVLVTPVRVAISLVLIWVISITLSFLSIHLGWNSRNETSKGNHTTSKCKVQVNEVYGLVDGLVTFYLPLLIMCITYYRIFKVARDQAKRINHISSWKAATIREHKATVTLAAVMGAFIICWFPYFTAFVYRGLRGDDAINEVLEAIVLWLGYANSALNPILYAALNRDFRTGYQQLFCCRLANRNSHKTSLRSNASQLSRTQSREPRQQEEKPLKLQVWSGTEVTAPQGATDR
# Sequence of Neuronal acetylcholine receptor subunit alpha-4 (P43681 whole entry): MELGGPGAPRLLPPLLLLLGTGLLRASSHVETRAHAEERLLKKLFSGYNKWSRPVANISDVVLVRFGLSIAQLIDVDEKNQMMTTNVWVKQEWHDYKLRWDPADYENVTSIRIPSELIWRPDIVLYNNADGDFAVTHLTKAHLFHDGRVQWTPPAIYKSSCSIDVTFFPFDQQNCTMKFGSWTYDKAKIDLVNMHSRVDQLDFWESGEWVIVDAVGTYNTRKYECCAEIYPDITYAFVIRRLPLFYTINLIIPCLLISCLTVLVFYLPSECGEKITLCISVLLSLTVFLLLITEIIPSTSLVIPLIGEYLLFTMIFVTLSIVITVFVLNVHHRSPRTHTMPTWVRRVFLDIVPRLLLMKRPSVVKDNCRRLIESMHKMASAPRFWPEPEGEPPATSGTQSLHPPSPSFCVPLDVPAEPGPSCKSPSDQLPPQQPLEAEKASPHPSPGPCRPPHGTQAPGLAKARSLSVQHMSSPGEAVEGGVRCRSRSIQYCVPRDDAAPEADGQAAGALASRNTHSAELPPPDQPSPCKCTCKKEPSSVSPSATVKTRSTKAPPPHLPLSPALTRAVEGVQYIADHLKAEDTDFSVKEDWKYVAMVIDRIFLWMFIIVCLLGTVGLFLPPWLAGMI
# T2 sequence (P62813 whole entry): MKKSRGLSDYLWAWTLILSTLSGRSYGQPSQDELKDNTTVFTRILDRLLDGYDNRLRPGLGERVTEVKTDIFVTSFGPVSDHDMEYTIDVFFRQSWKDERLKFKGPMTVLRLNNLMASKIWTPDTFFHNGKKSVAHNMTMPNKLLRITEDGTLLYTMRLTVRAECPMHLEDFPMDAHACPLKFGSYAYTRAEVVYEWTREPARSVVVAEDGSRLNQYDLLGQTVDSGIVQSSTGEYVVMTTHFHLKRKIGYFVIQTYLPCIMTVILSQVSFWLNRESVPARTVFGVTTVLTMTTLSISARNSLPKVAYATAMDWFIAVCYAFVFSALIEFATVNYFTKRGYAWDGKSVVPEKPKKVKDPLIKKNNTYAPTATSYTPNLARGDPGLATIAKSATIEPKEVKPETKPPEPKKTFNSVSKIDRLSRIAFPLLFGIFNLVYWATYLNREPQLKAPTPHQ
# Sequence of Motilin receptor (O43193 whole entry): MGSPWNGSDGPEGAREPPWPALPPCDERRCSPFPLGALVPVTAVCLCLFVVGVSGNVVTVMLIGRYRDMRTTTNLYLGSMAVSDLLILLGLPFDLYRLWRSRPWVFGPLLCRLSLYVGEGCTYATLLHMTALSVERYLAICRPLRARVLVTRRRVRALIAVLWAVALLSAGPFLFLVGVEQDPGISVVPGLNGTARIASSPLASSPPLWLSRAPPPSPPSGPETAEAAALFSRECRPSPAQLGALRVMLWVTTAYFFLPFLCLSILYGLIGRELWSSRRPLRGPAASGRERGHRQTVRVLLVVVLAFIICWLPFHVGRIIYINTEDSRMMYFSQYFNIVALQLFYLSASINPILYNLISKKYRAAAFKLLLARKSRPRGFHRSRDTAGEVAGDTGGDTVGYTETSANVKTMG
compound,measurement,setting,value
CCCCC1(CC)C(=O)NC(=O)NC1=O [BUTETHAL],AC50,[1],> 30 µM
same,AC50,[2],> 30 µM
same,AC50,[3],> 30 µM
same,AC50,[4],> 30 µM
same,AC50,Histamine H1 receptor,> 30 µM
same,AC50,Histamine H2 receptor,> 30 µM
same,AC50,[5],> 30 µM
same,AC50,[6],> 30 µM
same,AC50,Motilin receptor,> 30 µM
same,AC50,[7],> 30 µM
same,AC50,[8],> 30 µM
same,AC50,[9],> 30 µM
same,AC50,[10],> 30 µM
same,AC50,D(3) dopamine receptor,> 30 µM
same,AC50,Histamine H3 receptor,> 30 µM
CCN(CC)CCOC(=O)c1ccc(N)cc1Cl [CHLOROPROCAINE],AC50,[1],> 30 µM
same,AC50,[2],25 µM
same,AC50,[3],> 30 µM
same,AC50,[4],> 30 µM
same,AC50,Histamine H1 receptor,> 30 µM
same,AC50,Histamine H2 receptor,> 30 µM
same,AC50,[5],> 30 µM
same,AC50,[6],11 µM
same,AC50,Motilin receptor,> 30 µM
same,AC50,[7],> 30 µM
same,AC50,[8],> 30 µM
same,AC50,[9],> 30 µM
same,AC50,[10],> 30 µM
same,AC50,D(3) dopamine receptor,> 30 µM
same,AC50,Histamine H3 receptor,4 µM
O=C(O)c1ccccc1OP(=O)(O)O [FOSFOSAL],AC50,[1],> 30 µM
same,AC50,[2],> 30 µM
same,AC50,[3],> 30 µM
same,AC50,Histamine H1 receptor,> 30 µM
same,AC50,Histamine H2 receptor,> 30 µM
same,AC50,[5],> 30 µM
same,AC50,[6],> 30 µM
same,AC50,Motilin receptor,> 30 µM
same,AC50,[7],> 30 µM
same,AC50,[8],> 30 µM
same,AC50,[9],> 30 µM
same,AC50,[10],> 30 µM
same,AC50,D(3) dopamine receptor,> 30 µM
same,AC50,Histamine H3 receptor,> 30 µM
C#C[C@]1(O)CC[C@H]2[C@@H]3CCC4=CC(=O)CCC4=C3C=C[C@@]21CC [GESTRINONE],AC50,[1],> 30 µM
same,AC50,[2],> 30 µM
same,AC50,[11],> 30 µM
same,AC50,[3],8.8 µM
same,AC50,[4],> 30 µM
same,AC50,Histamine H1 receptor,> 30 µM
same,AC50,Histamine H2 receptor,> 30 µM
same,AC50,[5],> 30 µM
same,AC50,[6],> 30 µM
same,AC50,Motilin receptor,> 30 µM
same,AC50,[7],> 30 µM
same,AC50,[9],> 30 µM
same,AC50,[10],0.033 µM
same,AC50,D(3) dopamine receptor,> 30 µM
same,AC50,Histamine H3 receptor,> 30 µM
CC(=O)Nc1c(I)c(C(=O)N[C@H]2C(O)O[C@H](CO)[C@@H](O)[C@@H]2O)c(I)c(N(C)C(C)=O)c1I (some centres undefined) [METRIZAMIDE],AC50,[1],> 10 µM
same,AC50,[2],> 10 µM
same,AC50,[11],> 30 µM
same,AC50,[3],> 10 µM
same,AC50,[4],> 10 µM
same,AC50,Histamine H1 receptor,> 10 µM
same,AC50,Histamine H2 receptor,> 10 µM
same,AC50,[5],> 10 µM
same,AC50,[6],> 30 µM
same,AC50,Motilin receptor,> 10 µM
same,AC50,[7],> 10 µM
same,AC50,[8],> 10 µM
same,AC50,[9],> 10 µM
same,AC50,[10],> 10 µM
same,AC50,D(3) dopamine receptor,> 30 µM
CCOC(=O)Nc1ccc2c(c1)N(C(=O)CCN1CCOCC1)c1ccccc1S2 [MORICIZINE],AC50,[1],> 30 µM
same,AC50,[2],> 30 µM
same,AC50,[11],> 30 µM
same,AC50,[3],> 30 µM
same,AC50,[4],> 30 µM
same,AC50,Histamine H1 receptor,> 30 µM
same,AC50,Histamine H2 receptor,> 30 µM
same,AC50,[6],> 30 µM
same,AC50,Motilin receptor,> 30 µM
same,AC50,[7],> 30 µM
same,AC50,[8],> 30 µM
same,AC50,[9],> 30 µM
same,AC50,[10],> 30 µM
same,AC50,D(3) dopamine receptor,> 30 µM
same,AC50,Histamine H3 receptor,> 30 µM
